Data from patent publication US9145373B2, “Certain kynurenine-3-monooxygenase inhibitors, pharmaceutical compositions, and methods of use thereof” (CHDI FOUNDATION, INC., priority 2008, dated 2015).
Counter-ions that a name gives are not always drawn.

Biological target: T1, KMO mouse enzyme (Mus musculus, UniProt Q91WN4)
T1 construct: KMO enzyme prepared at Evotec from mouse liver (4-6 weeks old) via mitochondria isolation; from tissue; host or cells: mouse liver (4-6 weeks old), mitochondria isolation, prepared at Evotec
Experiment: KMO mouse enzyme assay: L-Kynurenine hydroxylation to 3-Hydroxy-Kynurenine monitored by LC/MS (MRM)
Assay type: biochemical
Conditions: compound at 10 μM; KMO enzyme from mouse liver mitochondria; read-out: INH.Mouse @ 10 μM
Method: A method of monitoring L-Kynurenine (KYN) hydroxylation to form 3-Hydroxy-Kynurenine (3OH-KYN) by LC/MS is described. Product is quantified by multiple reaction monitoring (MRM method).
• Compound: Stock concentrations: 10 mM in 100% DMSO • Enzyme: KMO enzyme prepared at Evotec from mouse liver (4-6 weeks old) via mitochondria isolation as described in the literature • Substrate: L-Kynurenine (Sigma: Cat# K3750, stock concentration: 10 mM in 100 mM potassium phosphate buffer, pH 7.4) Assay Conditions: […]

T1 sequence (Q91WN4 whole entry): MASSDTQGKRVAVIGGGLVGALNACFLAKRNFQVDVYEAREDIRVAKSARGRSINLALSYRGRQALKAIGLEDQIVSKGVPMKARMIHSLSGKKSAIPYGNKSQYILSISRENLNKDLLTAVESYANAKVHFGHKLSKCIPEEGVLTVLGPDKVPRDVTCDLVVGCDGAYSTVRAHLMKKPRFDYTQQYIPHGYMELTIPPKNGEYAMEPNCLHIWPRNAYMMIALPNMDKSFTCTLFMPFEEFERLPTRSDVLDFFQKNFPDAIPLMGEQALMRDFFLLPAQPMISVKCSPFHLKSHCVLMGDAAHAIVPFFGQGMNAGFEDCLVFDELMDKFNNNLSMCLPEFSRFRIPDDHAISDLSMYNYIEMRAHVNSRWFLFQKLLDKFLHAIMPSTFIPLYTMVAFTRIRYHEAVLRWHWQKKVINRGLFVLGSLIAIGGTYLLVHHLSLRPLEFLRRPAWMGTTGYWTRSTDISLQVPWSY

| inhibition at 10 µM [%] | SMILES |
| --- | --- |
| 53.8 | COc1cncc(NC(=O)c2cc(-c3cccc(Cl)c3)ccn2)c1 [4-(3-Chloro-phenyl)-pyridine-2-carboxylic acid (5-methoxy-pyridin-3-yl)-amide] |
| 64.3 | CN1CCN(C(=O)c2cc(-c3cccc(Cl)c3)ncn2)CC1 [[6-(3-Chloro-phenyl)-pyrimidin-4-yl]-(4-methyl-piperazin-1-yl)-methanone] |
| 98.3 | O=C(c1cc(-c2cc(Cl)cc(Cl)c2)ncn1)N1CCc2ccccc21 [[6-(3,5-Dichloro-phenyl)-pyrimidin-4-yl]-(2,3-dihydro-indol-1-yl)-methanone] |
| 53.5 | O=C(O)c1ccnc(-c2cccc(Cl)c2)c1 [2-(3-Chloro-phenyl)-isonicotinic acid hydrochloride salt] |
| 100 | O=C(Nc1ncco1)c1cc(-c2cccc(Cl)c2)ncn1 [6-(3-Chloro-phenyl)-pyrimidine-4-carboxylic acid oxazol-2-ylamide] |
| 54.5 | O=C(c1cc(-c2cc(Cl)cc(Cl)c2)ccn1)N1CCc2ccccc21 [[4-(3,5-Dichloro-phenyl)-pyridin-2-yl]-(2,3-dihydro-indol-1-yl)-methanone] |
| 100 | Cc1ccc(NC(=O)c2cc(-c3cccc(Cl)c3)ncn2)cc1 [6-(3-Chloro-phenyl)-pyrimidine-4-carboxylic acid p-tolylamide] |
| 43.5 | O=C(Nc1ccccc1)c1cc(-c2ccc(Cl)c(Cl)c2)ccn1 [4-(3,4-Dichloro-phenyl)-pyridine-2-carboxylic acid phenylamide] |
| 100 | O=C(Nc1ccccc1)c1cc(-c2cccc(Cl)c2)ncn1 [6-(3-Chloro-phenyl)-pyrimidine-4-carboxylic acid phenylamide] |
| 67 | O=C(NCc1ccccc1)c1cc(-c2cccc(Cl)c2)ncn1 [6-(3-Chloro-phenyl)-pyrimidine-4-carboxylic acid benzylamide] |
| 63.5 | O=C(c1cc(-c2ccc(Cl)c(Cl)c2)ncn1)N1Cc2ccccc2C1 [[6-(3,4-Dichloro-phenyl)-pyrimidin-4-yl]-(1,3-dihydro-isoindol-2-yl)-methanone] |
| 100 | COc1ccc(N(C)C(=O)c2cc(-c3cccc(Cl)c3)ncn2)cc1 [6-(3-Chloro-phenyl)-pyrimidine-4-carboxylic acid (4-methoxy-phenyl)-methyl-amide] |
| 88.2 | CC1CCN(C(=O)c2cc(-c3cccc(Cl)c3)ncn2)CC1 [[6-(3-Chloro-phenyl)-pyrimidin-4-yl]-(4-methyl-piperidin-1-yl)-methanone] |
| 97.8 | Cc1ncccc1NC(=O)c1cc(-c2cccc(Cl)c2)ncn1 [6-(3-Chloro-phenyl)-pyrimidine-4-carboxylic acid (2-methyl-pyridin-3-yl)-amide] |
| 100 | Cc1cc(NC(=O)c2cc(-c3cccc(Cl)c3)ncn2)on1 [6-(3-Chloro-phenyl)-pyrimidine-4-carboxylic acid (3-methyl-isoxazol-5-yl)-amide] |
| 100 | O=C(c1cc(-c2cccc(Cl)c2)ncn1)N1CCC1 [Azetidin-1-yl-[6-(3-chloro-phenyl)-pyrimidin-4-yl]-methanone] |
| 100 | O=C(c1cc(-c2cccc(Cl)c2)ncn1)N1CCc2cc(F)ccc21 [[6-(3-Chloro-phenyl)-pyrimidin-4-yl]-(5-fluoro-2,3-dihydro-indol-1-yl)-methanone] |
| 98.9 | O=C(Nc1ccc(F)cc1)c1cc(-c2cccc(Cl)c2)ncn1 [6-(3-Chloro-phenyl)-pyrimidine-4-carboxylic acid (4-fluoro-phenyl)-amide] |
| 100 | O=C(Nc1nccs1)c1cc(-c2cccc(Cl)c2)ncn1 [6-(3-Chloro-phenyl)-pyrimidine-4-carboxylic acid thiazol-2-ylamide] |
| 94.9 | CC(=O)N1CCN(C(=O)c2cc(-c3cccc(Cl)c3)ncn2)CC1 [1-{4-[6-(3-Chloro-phenyl)-pyrimidine-4-carbonyl]-piperazin-1-yl}-ethanone] |
| 93.6 | O=C(Nc1ccc(N2CCOCC2)cc1)c1cc(-c2cccc(Cl)c2)ncn1 [6-(3-Chloro-phenyl)-pyrimidine-4-carboxylic acid (4-morpholin-4-yl-phenyl)-amide] |
| 100 | O=C(c1cc(-c2ccc(Cl)c(Cl)c2)ncn1)N1CCc2ccccc21 [[6-(3,4-Dichloro-phenyl)-pyrimidin-4-yl]-(2,3-dihydro-indol-1-yl)-methanone] |

Further lines, the molecule ahead of its results:

| SMILES | inhibition at 10 µM [%] |
| --- | --- |
| CCCNC(=O)c1cc(-c2cccc(Cl)c2)ncn1 [6-(3-Chloro-phenyl)-pyrimidine-4-carboxylic acid propylamide] | 72.4 |
| Cc1cc(NC(=O)c2cc(-c3ccc(Cl)c(Cl)c3)ncn2)on1 [6-(3,4-Dichloro-phenyl)-pyrimidine-4-carboxylic acid (3-methyl-isoxazol-5-yl)-amide] | 100 |
| COC(=O)c1cc(-c2ccc(F)c(Cl)c2)ncn1 [6-(3-Chloro-4-fluoro-phenyl)-pyrimidine-4-carboxylic acid methyl ester] | 100 |
| COC(=O)c1cc(-c2ccc(C(F)(F)F)c(Cl)c2)ncn1 [6-(3-Chloro-4-trifluoromethyl-phenyl)-pyrimidine-4-carboxylic acid methyl ester] | 100 |
| O=C(Nc1cccnc1)c1cc(-c2ccc(F)c(F)c2)ncn1 [6-(3,4-Difluoro-phenyl)-pyrimidine-4-carboxylic acid pyridin-3-ylamide] | 84.7 |
| COC(=O)c1cc(-c2ccc(F)c(C(F)(F)F)c2)ncn1 [6-(4-Fluoro-3-trifluoromethyl-phenyl)-pyrimidine-4-carboxylic acid methyl ester] | 92.7 |
| Cc1ccc(NC(=O)c2cc(-c3ccc(Cl)c(Cl)c3)ncn2)cn1 [6-(3,4-Dichloro-phenyl)-pyrimidine-4-carboxylic acid (6-methyl-pyridin-3-yl)-amide] | 100 |
| O=C(O)c1cc(-c2cc(F)cc(C(F)(F)F)c2)ncn1 [6-(3-Fluoro-5-trifluoromethyl-phenyl)-pyrimidine-4-carboxylic acid] | 75.8 |
| COC(=O)c1cc(-c2cncc(F)c2)ncn1 [6-(5-Fluoro-pyridin-3-yl)-pyrimidine-4-carboxylic acid methyl ester] | 87.2 |
| O=C(O)c1cc(-c2cc(Cl)ccc2F)ncn1 [6-(5-Chloro-2-fluoro-phenyl)-pyrimidine-4-carboxylic acid] | 100 |
| O=C(NCCO)c1cc(-c2cccc(Cl)c2)ncn1 [6-(3-Chloro-phenyl)-pyrimidine-4-carboxylic acid (2-hydroxy-ethyl)-amide] | 95.8 |
| C[C@H](O)CNC(=O)c1cc(-c2cccc(Cl)c2)ncn1 [6-(3-Chloro-phenyl)-pyrimidine-4-carboxylic acid ((S)-2-hydroxy-propyl)-amide] | 87.3 |
| COC(=O)c1cc(-c2cccc(Cl)c2F)ncn1 [6-(3-Chloro-2-fluoro-phenyl)-pyrimidine-4-carboxylic acid methyl ester] | 100 |
| Cc1nnc(NC(=O)c2cc(-c3ccc(Cl)c(Cl)c3)ncn2)o1 [6-(3,4-Dichloro-phenyl)-pyrimidine-4-carboxylic acid (5-methyl-[1,3,4]oxadiazol-2-yl)-amide] | 100 |
| COc1ccc(-c2cc(C(=O)O)ncn2)cc1 [6-(4-Methoxy-phenyl)-pyrimidine-4-carboxylic acid] | 100 |
